Laboratory results taken from article PMC7503500, “A Structure-Activity Relationship Comparison of Imidazodiazepines Binding at Kappa, Mu, and Delta Opioid Receptors and the GABAA Receptor” (Molecules, 2020).
pKi: −log10 of the molar value. Read-outs that look alike come from different tables or passages of the source.

Experiments:
µ opioid receptor (MOR) = µ opioid receptor (MOR) (Homo sapiens, UniProt P35372); assay: Radioligand competition binding, MOR ([3H]-DAMGO), HEK293 cell homogenates; conditions: [3H]-DAMGO; for inhibition at 10 µM: read-out: MOR % (percent inhibition), at 10,000 nM; for MOR % (percent inhibition): at 10,000 nM
[1] = test system: synaptic benzodiazepine-sensitive receptors (BZR), GABAAR; assay: 3H-flunitrazepam binding, rat brain homogenate; conditions: for BZR % (percent inhibition): at 10,000 nM; for pKi: read-out: BZR (Ki)
κ opioid receptor (KOR) = κ opioid receptor (KOR) (Homo sapiens, UniProt P41145); assay: Radioligand competition binding, KOR ([3H]-U69593), HEK293 cell homogenates; conditions: for inhibition at 10 µM: read-out: KOR % (percent inhibition), at 10,000 nM; for inhibition at 10 µM / KOR % (percent inhibition): [3H]-U69593; for KOR % (percent inhibition): at 10,000 nM
δ opioid receptor (DOR) = δ opioid receptor (DOR) (Homo sapiens, UniProt P41143); assay: Radioligand competition binding, DOR ([3H]-DADLE), HEK293 cell homogenates; conditions: for inhibition at 10 µM: read-out: DOR % (percent inhibition), at 10,000 nM; for DOR % (percent inhibition): at 10,000 nM
[2] = read-out: KOR (Ki), [3H]-U69593, HEK293 homogenates

C#Cc1ccc2c(c1)C(c1ccccc1F)=N[C@@H](C)c1c(C(=O)OC(C)C)ncn1-2 [GL-I-31]
inhibition at 10 µM (µ opioid receptor (MOR)): 32%
BZR % (percent inhibition) [1]: 97%
pKi [1]: 6.61
pKi (κ opioid receptor (KOR)): 7.19
inhibition at 10 µM (κ opioid receptor (KOR)): 94%
inhibition at 10 µM (δ opioid receptor (DOR)): 8%

C#Cc1ccc2c(c1)C(c1ccccc1F)=N[C@@H](C)c1c(C(=O)OCCC)ncn1-2 [GL-I-32]
inhibition at 10 µM (µ opioid receptor (MOR)): 9%
BZR % (percent inhibition) [1]: 98%
pKi [1]: 6.83
pKi (κ opioid receptor (KOR)): 7.19
inhibition at 10 µM (κ opioid receptor (KOR)): 95%
inhibition at 10 µM (δ opioid receptor (DOR)): 14%

C#Cc1ccc2c(c1)C(c1ccccc1F)=N[C@@H](C)c1c(C(=O)OC(C)(C)CC)ncn1-2 [GL-I-33]
inhibition at 10 µM (µ opioid receptor (MOR)): 30%
BZR % (percent inhibition) [1]: 96%
pKi [1]: 6.93
pKi (κ opioid receptor (KOR)): 7.47
inhibition at 10 µM (κ opioid receptor (KOR)): 94%
inhibition at 10 µM (δ opioid receptor (DOR)): 25%

C#Cc1ccc2c(c1)C(c1ccccc1F)=N[C@@H](C)c1c(C(=O)OCC(F)(F)F)ncn1-2 [GL-I-36]
inhibition at 10 µM (µ opioid receptor (MOR)): 8%
BZR % (percent inhibition) [1]: 77%
pKi [1]: 6.38
pKi (κ opioid receptor (KOR)): 6.39
inhibition at 10 µM (κ opioid receptor (KOR)): 85%
inhibition at 10 µM (δ opioid receptor (DOR)): 0%

C#Cc1ccc2c(c1)C(c1ccccc1F)=N[C@@H](C)c1c(C(=O)OC3CC3)ncn1-2 [GL-I-38]
inhibition at 10 µM (µ opioid receptor (MOR)): 18%
BZR % (percent inhibition) [1]: 96%
pKi [1]: 6.90
pKi (κ opioid receptor (KOR)): 7.17
inhibition at 10 µM (κ opioid receptor (KOR)): 95%
inhibition at 10 µM (δ opioid receptor (DOR)): 16%

C#Cc1ccc2c(c1)C(c1ccccc1F)=N[C@@H](C)c1c(C(=O)NC(C)(C)C)ncn1-2 [GL-I-41]
inhibition at 10 µM (µ opioid receptor (MOR)): 40%
BZR % (percent inhibition) [1]: 90%
pKi [1]: 6.85
pKi (κ opioid receptor (KOR)): 7.41
inhibition at 10 µM (κ opioid receptor (KOR)): 97%
inhibition at 10 µM (δ opioid receptor (DOR)): 10%

C#Cc1ccc2c(c1)C(c1ccccc1F)=N[C@@H](C)c1c(C(=O)NCC)ncn1-2 [GL-I-43]
inhibition at 10 µM (µ opioid receptor (MOR)): 22%
BZR % (percent inhibition) [1]: 94%
pKi [1]: 7.36
pKi (κ opioid receptor (KOR)): 6.99
inhibition at 10 µM (κ opioid receptor (KOR)): 95%
inhibition at 10 µM (δ opioid receptor (DOR)): 3%

C#Cc1ccc2c(c1)C(c1ccccc1F)=N[C@@H](C)c1c(C(=O)N(C)C)ncn1-2 [GL-I-54]
inhibition at 10 µM (µ opioid receptor (MOR)): 18%
BZR % (percent inhibition) [1]: 94%
pKi [1]: 7.05
pKi (κ opioid receptor (KOR)): 6.10
inhibition at 10 µM (κ opioid receptor (KOR)): 78%
inhibition at 10 µM (δ opioid receptor (DOR)): 11%

C#Cc1ccc2c(c1)C(c1ccccc1F)=N[C@@H](C)c1c(C(=O)NC3CC3)ncn1-2 [GL-I-55]
inhibition at 10 µM (µ opioid receptor (MOR)): 17%
BZR % (percent inhibition) [1]: 95%
pKi [1]: 7.70
pKi (κ opioid receptor (KOR)): 6.82
inhibition at 10 µM (κ opioid receptor (KOR)): 93%
inhibition at 10 µM (δ opioid receptor (DOR)): 24%

C#Cc1ccc2c(c1)C(c1ccccc1F)=N[C@@H](C)c1c(-c3nc(C)no3)ncn1-2 [GL-I-65]
MOR % (percent inhibition) (µ opioid receptor (MOR)): 2%
BZR % (percent inhibition) [1]: 79%
pKi [1]: 5.94
KOR % (percent inhibition) (κ opioid receptor (KOR)): 88%
pKi (κ opioid receptor (KOR); [2]): 6.65
DOR % (percent inhibition) (δ opioid receptor (DOR)): 7%

C#Cc1ccc2c(c1)C(c1ccccc1F)=N[C@@H](C)c1c(-c3nc(CC)no3)ncn1-2 [GL-I-66]
MOR % (percent inhibition) (µ opioid receptor (MOR)): 28%
BZR % (percent inhibition) [1]: 80%
pKi [1]: 6.18
KOR % (percent inhibition) (κ opioid receptor (KOR)): 92%
pKi (κ opioid receptor (KOR); [2]): 6.67
DOR % (percent inhibition) (δ opioid receptor (DOR)): 2%

C#Cc1ccc2c(c1)C(c1ccccc1F)=N[C@@H](C)c1c(C(=O)SCC)ncn1-2 [GL-I-77]
inhibition at 10 µM (µ opioid receptor (MOR)): 41%
BZR % (percent inhibition) [1]: 92%
pKi [1]: 6.91
pKi (κ opioid receptor (KOR)): 6.90
inhibition at 10 µM (κ opioid receptor (KOR)): 95%
inhibition at 10 µM (δ opioid receptor (DOR)): 4%

CCOC(=O)c1ncn2c1[C@H](C)N=C(c1ccccc1F)c1cc(C3CC3)ccc1-2 [GL-I-78]
MOR % (percent inhibition) (µ opioid receptor (MOR)): 32%
BZR % (percent inhibition) [1]: 76%
pKi [1]: 6.45
KOR % (percent inhibition) (κ opioid receptor (KOR)): 96%
DOR % (percent inhibition) (δ opioid receptor (DOR)): 41%

C#Cc1ccc2c(c1)C(c1ccccc1F)=N[C@@H](C)c1c(-c3nc(C(C)C)no3)ncn1-2 [GL-I-81]
MOR % (percent inhibition) (µ opioid receptor (MOR)): 64%
pKi (µ opioid receptor (MOR); read-out: MOR Ki, HEK293 homogenates): 5.53
BZR % (percent inhibition) [1]: 83%
pKi [1]: 6.08
KOR % (percent inhibition) (κ opioid receptor (KOR)): 93%
pKi (κ opioid receptor (KOR); [2]): 6.90
DOR % (percent inhibition) (δ opioid receptor (DOR)): 25%

CCOC(=O)c1ncn2c1[C@@H](C)N=C(c1ccccn1)c1cc(Br)ccc1-2 [GL-II-06]
inhibition at 10 µM (µ opioid receptor (MOR)): 11%
BZR % (percent inhibition) [1]: 81%
pKi [1]: 6.25
pKi (κ opioid receptor (KOR)): 6.40
inhibition at 10 µM (κ opioid receptor (KOR)): 79%
inhibition at 10 µM (δ opioid receptor (DOR)): 9%

C#Cc1ccc2c(c1)C(c1ccccn1)=N[C@H](C)c1c(C(=O)OCC)ncn1-2 [GL-II-19]
inhibition at 10 µM (µ opioid receptor (MOR)): 17%
BZR % (percent inhibition) [1]: 71%
pKi [1]: 5.94
inhibition at 10 µM (κ opioid receptor (KOR)): 44%
inhibition at 10 µM (δ opioid receptor (DOR)): 2%

C#Cc1ccc2c(c1)C(c1ccccn1)=N[C@H](C)c1c(C(=O)O)ncn1-2 [GL-II-30]
inhibition at 10 µM (µ opioid receptor (MOR)): 20%
BZR % (percent inhibition) [1]: 65%
pKi [1]: 6.37
inhibition at 10 µM (κ opioid receptor (KOR)): 0%
inhibition at 10 µM (δ opioid receptor (DOR)): 4%

C#Cc1ccc2c(c1)C(c1ccccn1)=N[C@H](C)c1c(C(=O)NC)ncn1-2 [GL-II-31]
inhibition at 10 µM (µ opioid receptor (MOR)): 17%
BZR % (percent inhibition) [1]: 72%
pKi [1]: 5.77
inhibition at 10 µM (κ opioid receptor (KOR)): 23%
inhibition at 10 µM (δ opioid receptor (DOR)): 3%

C#Cc1ccc2c(c1)C(c1ccccn1)=N[C@H](C)c1c(C(=O)OC)ncn1-2 [GL-II-32]
inhibition at 10 µM (µ opioid receptor (MOR)): 32%
BZR % (percent inhibition) [1]: 63%
pKi [1]: 5.85
inhibition at 10 µM (κ opioid receptor (KOR)): 35%
inhibition at 10 µM (δ opioid receptor (DOR)): 0%

C[C@H]1N=C(c2ccccn2)c2cc(Br)ccc2-n2cnc(C(=O)O)c21 [GL-II-51]
inhibition at 10 µM (µ opioid receptor (MOR)): 0%
BZR % (percent inhibition) [1]: 84%
pKi [1]: 6.74
inhibition at 10 µM (κ opioid receptor (KOR)): 11%
inhibition at 10 µM (δ opioid receptor (DOR)): 0%

C#Cc1ccc2c(c1)C(c1ccccn1)=N[C@H](C)c1c(-c3nc(CC)no3)ncn1-2 [GL-II-54]
MOR % (percent inhibition) (µ opioid receptor (MOR)): 0%
BZR % (percent inhibition) [1]: 66%
pKi [1]: 5.69
KOR % (percent inhibition) (κ opioid receptor (KOR)): 80%
pKi (κ opioid receptor (KOR); [2]): 6.30
DOR % (percent inhibition) (δ opioid receptor (DOR)): 0%

C#Cc1ccc2c(c1)C(c1ccccc1F)=N[C@H](C)c1c(C(=O)N(C)C)ncn1-2 [GL-II-73]
inhibition at 10 µM (µ opioid receptor (MOR)): 6%
BZR % (percent inhibition) [1]: 75%
pKi [1]: 6.30
pKi (κ opioid receptor (KOR)): 5.92
inhibition at 10 µM (κ opioid receptor (KOR)): 58%
inhibition at 10 µM (δ opioid receptor (DOR)): 0%

C#Cc1ccc2c(c1)C(c1ccccc1F)=N[C@H](C)c1c(C(=O)NCC)ncn1-2 [GL-II-74]
inhibition at 10 µM (µ opioid receptor (MOR)): 10%
BZR % (percent inhibition) [1]: 84%
pKi [1]: 7.17
pKi (κ opioid receptor (KOR)): 6.71
inhibition at 10 µM (κ opioid receptor (KOR)): 86%
inhibition at 10 µM (δ opioid receptor (DOR)): 0%

C#Cc1ccc2c(c1)C(c1ccccc1F)=N[C@H](C)c1c(C(=O)NC3CC3)ncn1-2 [GL-II-75]
inhibition at 10 µM (µ opioid receptor (MOR)): 0%
BZR % (percent inhibition) [1]: 85%
pKi [1]: 7.03
pKi (κ opioid receptor (KOR)): 6.56
inhibition at 10 µM (κ opioid receptor (KOR)): 81%
inhibition at 10 µM (δ opioid receptor (DOR)): 3%

C#Cc1ccc2c(c1)C(c1ccccc1F)=N[C@H](C)c1c(C(=O)N3CCCC3)ncn1-2 [GL-II-76]
inhibition at 10 µM (µ opioid receptor (MOR)): 0%
BZR % (percent inhibition) [1]: 43%
pKi (κ opioid receptor (KOR)): 6.43
inhibition at 10 µM (κ opioid receptor (KOR)): 80%
inhibition at 10 µM (δ opioid receptor (DOR)): 0%

C#Cc1ccc2c(c1)C(c1ccccn1)=NCc1c(C(=O)OCC)ncn1-2 [Hz-166]
inhibition at 10 µM (µ opioid receptor (MOR)): 6%
pKi (κ opioid receptor (KOR)): 5.42
inhibition at 10 µM (κ opioid receptor (KOR)): 60%
inhibition at 10 µM (δ opioid receptor (DOR)): 49%
